# Assay results reported in patent publication US20240262844A1, “PYRIDINIUM SALTS AND METHODS OF USE” (UNIVERSITY OF WYOMING, priority 2023, published 2024).
# Where “and” joins values, the source holds several entries; their conditions need not be identical. Equal entries are not always repeated. Structures can show the parent of a compound that is named as a salt.
# Key:
# [1] = biological target: T1, β2-Microglobulin (11.7 kDa) (Homo sapiens, UniProt P61769); assay: Photochemical labeling of β2-microglobulin (LC/MS, MS-MS); type: biochemical
# T1 construct: β2-microglobulin (Human Urine≥98% (SDS-PAGE)); purchased Lee Biosolutions; host or cells: human urine
# T1 sequence (P61769 21-119): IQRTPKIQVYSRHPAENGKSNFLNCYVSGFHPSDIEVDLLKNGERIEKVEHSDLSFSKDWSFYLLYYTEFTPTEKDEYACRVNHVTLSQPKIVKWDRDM
# Experimental: General Procedure B: Photochemical Irradiation of Peptides and Proteins: To a 2 mL Pyrex LC/MS vial (Thermo model #03-391-39) were sequentially added solutions containing the desired biomolecule, glutathione (GSH), pyridinium salt, and ammonium acetate (NH4OAc). The resulting solution was diluted to a final volume of 500 μL and then sparged using nitrogen for a minimum of 30 minutes prior to irradiation. The actively sparging solution was then placed in an EvoluChem™ PhotoRedOx Box photoreactor that was equipped with a Kessil, PR160 427 nm LED Lamp and was then irradiated (100% lamp intensity) for the designated time at room temperature while maintaining active sparging. The resultant reaction mixture was then analyzed directly by LC/MS. Analysis of labeling outcomes using LC/MS was performed either by extracted ion chromatogram intensities (method A) or by integrating the area under the peaks associated with peptide content (method B). […]
# Labeling of β2-Microglobulin with Pyridinium Salt 2a (B2-Microglobulin-2a Conjugate). […] The reaction mixture was directly analyzed by LC/MS using method A and was estimated to have proceeded with 88% conversion with a >20:1 mono:di labeled ratio and 7% glutathionylation of all unlabeled and labeled protein content. β2-Microglobulin-2a conjugate (retention time (Tr)=3.26-4.70 min). […]
# thioredoxin (11.6 kDa) = biological target: T2, thioredoxin (11.6 kDa) (Escherichia coli, UniProt P0AA25); assay: Photochemical labeling of thioredoxin (LC/MS, MS-MS); type: biochemical
# T2 construct: purchased Sigma Aldrich; host or cells: E. coli
# T2 sequence (P0AA25 whole entry): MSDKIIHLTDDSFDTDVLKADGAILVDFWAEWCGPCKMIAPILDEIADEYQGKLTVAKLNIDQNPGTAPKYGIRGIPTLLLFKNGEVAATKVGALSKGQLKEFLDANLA
# Experimental: General Procedure B: Photochemical Irradiation of Peptides and Proteins: To a 2 mL Pyrex LC/MS vial (Thermo model #03-391-39) were sequentially added solutions containing the desired biomolecule, glutathione (GSH), pyridinium salt, and ammonium acetate (NH4OAc). The resulting solution was diluted to a final volume of 500 μL and then sparged using nitrogen for a minimum of 30 minutes prior to irradiation. The actively sparging solution was then placed in an EvoluChem™ PhotoRedOx Box photoreactor that was equipped with a Kessil, PR160 427 nm LED Lamp and was then irradiated (100% lamp intensity) for the designated time at room temperature while maintaining active sparging. The resultant reaction mixture was then analyzed directly by LC/MS. Analysis of labeling outcomes using LC/MS was performed either by extracted ion chromatogram intensities (method A) or by integrating the area under the peaks associated with peptide content (method B). These values were totaled, and estimated percentages were assigned according to relative intensities of peaks or ion counts.
# Labeling of Thioredoxin with Pyridinium Salt 2a (Thioredoxin-2a Conjugate). […] The reaction mixture was directly analyzed by LC/MS using method A and was estimated to have proceeded with 93% conversion and a 14.5:1 mono:di labeled ratio and 3% glutathionylation of all protein content. […]
smiles,measurement,setting,value
"COC(=O)N(C)[n+]1c(C)cc(-c2ccc3cc(OC)ccc3c2)cc1C [Pyridinium salt 2a, 1-((methoxycarbonyl)(methyl)amino)-4-(6-methoxynapthalen-2-yl)-2,6-dimethylpyridin-1-ium tetrafluoroborate]",glutathionylation of all unlabeled and labeled protein content,"[1]; 10 μM β2-microglobulin, 200 μM pyridinium salt, 1 mM glutathione, 30 minutes",7%
same,site of tryptophan modification,[1]; digestion/MS-MS,Trp-60
same,conversion,"thioredoxin (11.6 kDa); 10 μM thioredoxin, 200 μM pyridinium salt, 300 μM glutathione, 20 mM NH4OAc pH 6.9, 427 nm, 60 minutes",93% and 87%
same,site of tryptophan modification,thioredoxin (11.6 kDa); digestion/MS-MS,Trp-31
